# Read-outs that look alike come from different tables or passages of the source.
# Assays:
# conditioned rats = assay: secondary conditioned avoidance response test (anti-anxiety effect); assay type: in vivo
# Method: The CNS depressant properties were investigated according to the Irwin method, and in particular, the anti-anxiety effect was evaluated on the basis of the secondary conditioned avoidance response test. A specific anti-anxiety effect was evidenced by administering to conditioned rats doses of 15-60 mg./kg. i.p. of representative compounds of the invention.
# The following table indicates the ratio of the rats which were deconditioned after administration of a predetermined amount of a representative compound: […]
# [1] = acute toxicity LD50 in mice; settings: mouse, in vivo, ip; i.p. in mice
# [2] = system: female Syrian golden hamsters; assay: anti-fertility activity in pregnant female Syrian golden hamsters; assay type: in vivo; design: key to anti-fertility activity (active according to criteria): active: a reduction of live fetuses in at least 60% of the treated animals and the presence of implantation sites proves the animal to have been pregnant; settings: for anti-fertility activity (active according to criteria): 10 mg./kg. s.c. daily for 5 days, days 4-8 of pregnancy, autopsy day 14; for ED50: Mesocricetus auratus, sc, read-out: ED50 (dose showing 100% effectiveness in 50% of the treated animals)
# Method: Representative experiments for assessing anti-fertility activity are carried out with female Syrian golden hamsters weighing 100 to 130 g. The animals are mated and the presence of sperm in the vagina is taken as evidence of mating. The day sperm is detected is considered day one of pregnancy, since in our laboratories and those of other investigators 90 to 100% of animals that mate as evidenced by vaginal sperm are pregnant. Pregnancy is later confirmed at the time of autopsy by presence of fetuses or implantation sites in the uterus. Even if an animal aborts the fetus, implantation scars still remain as evidence that the animal had been pregnant. Test compounds dissolved or suspended in sesame oil are administered subcutaneously in doses of 10 mg./kg. daily for 5 days beginning on day 4 of pregnancy (days 4-8). The animals are autopsied on day 14 of pregnancy and the uteri are examined for evidence of pregnancy (implantation sites, fetal resorptions or live fetuses), hemorrage, and evidence of abnormalities of the uterus, placenta or fetuses. A compound is considered to be active if there is a reduction of live fetuses in at least 60% of the treated animals and the presence of implantation sites proves the animal to have been pregnant. […] The compounds are then studied for dose-activity relationship and toxicity or other biological activities. Compounds that show 100% effectiveness (absence of live fetuses in 100% of animals) with minimal side effects or toxicity are studied in depth.
# The ED50 values identify the dose levels which show 100% effectiveness (defined as above) in 50% of the treated animals.
# female beagle dogs = assay: anti-fertility activity in pregnant female beagle dogs; assay type: in vivo; settings: Canis lupus familiaris, sc; single subcutaneous dose on 20th day of pregnancy, opened on 35th day; read-out: Minimal effective doses (100% effectiveness, absence of live fetuses in 100% of the animals)
# From the text: In performing experiments with dogs, female beagle dogs weighing approximately 10 kg. are mated and on the 20th day of pregnancy the animals are given single subcutaneous doses of the compounds that were active in both the rat and the hamster. On the 35th day of pregnancy, the animals are surgically opened and the uteri are examined for presence of fetuses, placental tissue etc. Following Table III reports the minimal doses of representative compounds showing a 100% effectiveness (absence of live fetuses in 100% of the animals).
# [3] = Table I, 5,6-dihydro compounds, hamsters
# [4] = Table II, 5,6-unsaturated compounds, similar experiments
Compound,anti-fertility activity (active according to criteria) [2],"ED50 [2, 3] [mg/kg]",further results
"N=C(NN1CCc2ccccc2C1=O)c1cccc([N+](=O)[O-])c1 [2-(m-Nitrobenzimidoylamino)-3,4-dihydro-1-(2H) isoquinolinone]",,,Deconditioned/treated (conditioned rats; dose 30 mg./kg. i.p.): 6/10; Deconditioned/treated (conditioned rats; dose 60 mg./kg. i.p.): 10/10; LD50 [1]: > 600 mg/kg
"N=C(NN1CCc2ccccc2C1=O)c1ccccc1 [2-Benzimidoylamino-3,4-dihydro-1 (2H)-isoquinolinone]",,,Deconditioned/treated (conditioned rats; dose 60 mg./kg. i.p.): 10/10; LD50 [1]: > 600 mg/kg
"CCOC(=O)NC(=S)Nc1nc2n(n1)CCc1ccccc1-2 [2-carbethoxythioureido-5,6-dihydro-s-triazole-[5,1-a]isoquinoline]",,,Deconditioned/treated (conditioned rats; dose 60 mg./kg. i.p.): 7/10; LD50 [1]: > 600 mg/kg
"COc1cccc(-c2nc3n(n2)CCc2ccccc2-3)c1 [Example 1, 2-(m-Methoxyphenyl)-5,6-dihydro-s-triazolo[5,1-a]isoquinoline]",active,0.1,minimal effective dose (female beagle dogs): 12.5 mg/kg
"Cc1ccccc1-c1nc2n(n1)CCc1ccccc1-2 [Example 2, 2-(o-toluyl)-5,6-dihydro-s-triazolo[5,1-a]isoquinoline, reference compound]",,> 10,
"Cc1cccc(-c2nc3n(n2)CCc2ccccc2-3)c1 [Example 3, 2-(m-toluyl)-5,6-dihydro-s-triazolo[5,1-a]isoquinoline, reference compound]",,> 10,
"Cc1ccc(-c2nc3n(n2)CCc2ccccc2-3)cc1 [Example 4, 2-(p-toluyl)-5,6-dihydro-s-triazolo[5,1-a]isoquinoline, reference compound]",,2,
"c1ccc(-c2nc3n(n2)CCc2ccccc2-3)cc1 [Example 5, 2-phenyl-5,6-dihydro-s-triazolo[5,1-a]isoquinoline, reference compound]",,1,
"Clc1cccc(-c2nc3n(n2)CCc2ccccc2-3)c1 [Example 7, 2-(m-chlorophenyl)-5,6-dihydro-s-triazolo[5,1-a]isoquinoline]",active,0.75,
"Clc1ccc(-c2nc3n(n2)CCc2ccccc2-3)cc1 [Example 8, 2-(p-chlorophenyl)-5,6-dihydro-s-triazolo[5,1-a]isoquinoline]",active,0.065,
"Cc1nc2n(n1)CCc1ccccc1-2 [Example 9, 2-methyl-5,6-dihydro-s-triazolo[5,1-a]isoquinoline, reference compound]",,> 10,
"c1cncc(-c2nc3n(n2)CCc2ccccc2-3)c1 [Example 10, 2-(3-pyridyl)-5,6-dihydro-s-triazolo[5,1-a]isoquinoline]",,,Deconditioned/treated (conditioned rats; dose 15 mg./kg. i.p.): 10/10; LD50 [1]: > 400 mg/kg
"COc1cc(OC)cc(-c2nc3n(n2)CCc2ccccc2-3)c1 [Example 12, 2-(3,5-dimethoxyphenyl)-5,6-dihydro-s-triazolo[5,1-a]isoquinoline]",active,,
"CCOc1cccc(-c2nc3n(n2)CCc2ccccc2-3)c1 [Example 13, 2-(m-ethoxyphenyl)-5,6-dihydro-s-triazolo[5,1-a]isoquinoline]",active,0.03,minimal effective dose (female beagle dogs): 6.25 mg/kg
"CCCOc1cccc(-c2nc3n(n2)CCc2ccccc2-3)c1 [Example 14, 2-(m-propoxyphenyl)-5,6-dihydro-s-triazolo[5,1-a]isoquinoline]",active,0.11,minimal effective dose (female beagle dogs): 6.25 mg/kg
"c1ccc(COc2cccc(-c3nc4n(n3)CCc3ccccc3-4)c2)cc1 [Example 15, 2-(m-benzyloxyphenyl)-5,6-dihydro-s-triazolo[5,1-a]isoquinoline]",active,,
"c1ccc2c(c1)CCn1nc(-c3ccc4c(c3)OCO4)nc1-2 [Example 16, 2-(3,4-methylenedioxyphenyl)-5,6-dihydro-s-triazolo[5,1-a]isoquinoline]",active,,

Compound,anti-fertility activity (active according to criteria) [2],"ED50 [2, 3] [mg/kg]",further results
"Fc1cccc(-c2nc3n(n2)CCc2ccccc2-3)c1 [Example 19, 2-(m-fluorophenyl)-5,6-dihydro-s-triazolo[5,1-a]isoquinoline]",active,,
"CC(C)Oc1cccc(-c2nc3n(n2)CCc2ccccc2-3)c1 [Example 21, 2-(m-isopropoxyphenyl)-5,6-dihydro-s-triazolo[5,1-a]isoquinoline]",active,0.25,
"CCCCCOc1cccc(-c2nc3n(n2)CCc2ccccc2-3)c1 [Example 22, 2-(m-pentyloxyphenyl)-5,6-dihydro-s-triazolo[5,1-a]isoquinoline]",active,,
"c1cc(OC2CCCC2)cc(-c2nc3n(n2)CCc2ccccc2-3)c1 [Example 23, 2-(m-cyclopentyloxyphenyl)-5,6-dihydro-s-triazolo[5,1-a]isoquinoline]",active,,
"C=CCOc1cccc(-c2nc3n(n2)CCc2ccccc2-3)c1 [Example 24, 2-(m-allyloxyphenyl)-5,6-dihydro-s-triazolo[5,1-a]isoquinoline]",active,0.18,minimal effective dose (female beagle dogs): 6.25 mg/kg
"C#CCOc1cccc(-c2nc3n(n2)CCc2ccccc2-3)c1 [Example 25, 2-(m-propargyloxyphenyl)-5,6-dihydro-s-triazolo[5,1-a]isoquinoline]",active,0.21,
"CN(C)c1ccc(-c2nc3n(n2)CCc2ccccc2-3)cc1 [Example 27, 2-(p-dimethylaaminophenyl)-5,6-dihydro-s-triazolo[5,1-a]isoquinoline]",active,,
"Fc1ccc(-c2nc3n(n2)CCc2ccccc2-3)cc1 [Example 28, 2-(p-fluorophenyl)-5,6-dihydro-s-triazolo[5,1-a]isoquinoline]",active,0.1,
"CCCCOc1cccc(-c2nc3n(n2)CCc2ccccc2-3)c1 [Example 31, 2-(m-butoxyphenyl)-5,6-dihydro-s-triazolo[5,1-a]isoquinoline]",active,,
Nc1nc2n(n1)CCc1ccccc1-2 [Example 32],,,Deconditioned/treated (conditioned rats; dose 30 mg./kg. i.p.): 6/10; LD50 [1]: > 600 mg/kg
"CC(=O)N(C(C)=O)c1nc2n(n1)CCc1ccccc1-2 [Example 34, 2-Diacetylamino-5,6-dihydro-s-triazolo[5,1-a]isoquinoline]",,,Deconditioned/treated (conditioned rats; dose 60 mg./kg. i.p.): 6/9; LD50 [1]: > 600 mg/kg
"CC(=O)Nc1nc2n(n1)CCc1ccccc1-2 [Example 35, 2-Acetamido-5,6-dihydro-s-triazolo[5,1-a]isoquinoline]",,,Deconditioned/treated (conditioned rats; dose 60 mg./kg. i.p.): 7/10; LD50 [1]: > 400 mg/kg
"CN(C)c1cccc(-c2nc3n(n2)CCc2ccccc2-3)c1 [Example 41, 2-(m-Dimethylaminophenyl)-5,6-dihydro-s-triazolo[5,1-a]isoquinoline]",active,,
"Oc1cccc(-c2nc3n(n2)CCc2ccccc2-3)c1 [Example 42, 2-(3-Hydroxyphenyl)-5,6-dihydro-s-triazolo[5,1-a]isoquinoline]",active,,
"COc1cccc(-c2nc3c4ccccc4ccn3n2)c1 [Example 58, 2-(m-Methoxyphenyl)-s-triazolo[5,1-a]isoquinoline]",active,,"ED50 [2, 4]: 0.1 mg/kg"
"c1ccc(-c2nc3c4ccccc4ccn3n2)cc1 [Example 59, 2-Phenyl-s-triazolo[5,1-a]isoquinoline, reference compound]",,,"ED50 [2, 4]: 0.25 mg/kg"
"Clc1ccc(-c2nc3c4ccccc4ccn3n2)cc1 [Example 61, 2-(p-Chlorophenyl)-s-triazolo[5,1-a]isoquinoline]",active,,"ED50 [2, 4]: 0.08 mg/kg"
